Tests used:
Conditions in all cases: final concentration in well; CAMHB, 37° C., 24 hours; single compound
[1] = test system: Pseudomonas aeruginosa ATCC 27853
Experimental: (§1) Similarly, starting with a 1% methylene blue solution, a 2-fold serial dilution series was generated consisting of 24 members having a methylene blue concentration ranging from 1% to 1.1920929×10^−7%. Each dilution series was prepared using Cation-Adjusted Muller Hinton broth (CAMHB).
(§2) For each dilution series, 0.1 ml of each dilution, in order from most concentrated to least concentrated, was placed into a separate well of a 96-well tissue-culture plate. Select bacterial species were diluted in CAMHB so that 0.1 ml contained approximately 1×10^6 bacteria per ml. […] The tissue-culture plates were incubated at 37° C. for 24 hours.
(§3) After 24 hours, each well was visually assessed using a light microscope for bacterial growth.
(§4) 0.1 ml of each dilution, in order from most concentrated to least concentrated, was placed into an individual well of a 96-well tissue-culture plate. Select bacterial species were diluted in CAMHB so that 0.1 ml contained approximately 1×10^6 bacteria per ml. […] The tissue-culture plates were incubated at 37° C. for 24 hours.
(§5) After 24 hours, each well was visually assessed using a light microscope for bacterial growth. The dilution with the lowest concentrations capable of inhibiting bacterial growth was defined as the MIC.

[2] = test system: Klebsiella pneumoniae ATCC 13883
Experimental: Each dilution series was prepared using Cation-Adjusted Muller Hinton broth (CAMHB).
as §2, §3

[3] = test system: Staphylococcus aureus ATCC BAA-44
Experimental: as §1, §2, §3, §4, §5

MIC [1] [%] | MIC [2] [%] | MIC [3] [%] | SMILES
0.5 | 0.25 | 0.003906 | CN(C)c1ccc2nc3ccc(=[N+](C)C)cc-3sc2c1 [Methylene Blue, 3,7-bis(dimethylamine)-phenothiazin-5-ium chloride]
0.332 | 0.332 | 0.332 | O=P(O)(O)O [Phosphoric Acid, phosphoric acid]

— US20220168317A1, “Therapeutic Thiazine Dye Compositions and Methods of Use” (AB BioInnovations, Inc., priority 2020, published 2022)
